# Laboratory results taken from ChEMBL document CHEMBL4270624, “Synthesis and antibacterial evaluation of 13-substituted cycloberberine derivatives as a novel class of anti-MRSA agents” (Eur J Med Chem, 2018).
# Experiments:
# Staphylococcus aureus [1] = test: Antibacterial activity against methicillin-resistant Staphylococcus aureus ATCC BAA-976 after 18 hrs by agar dilution method; assay type: functional; details: ATCC BAA-976, 18 h
# [2] = Toxicity in iv dosed Kunming mouse administered as single dose measured for 7 days; assay type: organism-based; details: in vivo
# Staphylococcus aureus [3] = test: Antibacterial activity against methicillin-sensitive Staphylococcus aureus 16-1 clinical isolate after 18 hrs by agar dilution method; assay type: functional; details: 16-1, 18 h
# [4] = Stability of the compound in Sprague-Dawley rat whole blood assessed as parent compound remaining after 24 hrs by LC-MS/MS analysis; assay type: ADME, tissue-based; details: read-out: Stability
# [5] = Stability of the compound in Sprague-Dawley rat whole blood assessed as parent compound remaining after 1 hr by LC-MS/MS analysis; assay type: ADME, tissue-based; details: read-out: Stability
# [6] = Oral bioavailability in Sprague-Dawley rat at 5 mg/kg administered as single dose; assay type: ADME, organism-based; details: in vivo
# [7] = AUC (0 to t) in Sprague-Dawley rat at 1 mg/kg, iv administered as single dose; assay type: ADME, organism-based; details: in vivo
# Staphylococcus aureus [8] = test: Antibacterial activity against methicillin-resistant Staphylococcus aureus ATCC 43300 after 18 hrs by agar dilution method; assay type: functional; details: ATCC 43300, 18 h
# Staphylococcus aureus [9] = test: Antibacterial activity against methicillin-resistant Staphylococcus aureus 16-30 clinical isolate after 18 hrs by agar dilution method; assay type: functional; details: 16-30, 18 h
# Staphylococcus aureus [10] = test: Antibacterial activity against methicillin-resistant Staphylococcus aureus 13-18 clinical isolate after 18 hrs by agar dilution method; assay type: functional; details: 13-18, 18 h
# [11] = Half life in Sprague-Dawley rat at 1 mg/kg, iv administered as single dose; assay type: ADME, organism-based; details: in vivo
# [12] = AUC (0 to t) in Sprague-Dawley rat at 5 mg/kg, po administered as single dose; assay type: ADME, organism-based; details: in vivo
# Staphylococcus aureus [13] = test: Antibacterial activity against methicillin-sensitive Staphylococcus aureus ATCC 29213 after 18 hrs by agar dilution method; assay type: functional; details: ATCC 29213, 18 h
# Staphylococcus aureus [14] = test: Antibacterial activity against methicillin-resistant Staphylococcus aureus 16-34 clinical isolate after 18 hrs by agar dilution method; assay type: functional; details: 16-34, 18 h
# [15] = Mean residence time (0 to t) in Sprague-Dawley rat at 5 mg/kg, po administered as single dose; assay type: ADME, organism-based; details: in vivo
# Staphylococcus aureus [16] = test: Antibacterial activity against methicillin-resistant Staphylococcus aureus ATCC BAA-1708 after 18 hrs by agar dilution method; assay type: functional; details: ATCC BAA-1708, 18 h
# Staphylococcus aureus [17] = test: Antibacterial activity against methicillin-resistant Staphylococcus aureus 13-23 clinical isolate after 18 hrs by agar dilution method; assay type: functional; details: 13-23, 18 h
# Staphylococcus aureus [18] = test: Antibacterial activity against methicillin-resistant Staphylococcus aureus ATCC 33591 after 18 hrs by agar dilution method; assay type: functional; details: ATCC 33591, 18 h
# [19] = Tmax in Sprague-Dawley rat at 5 mg/kg, po administered as single dose; assay type: ADME, organism-based; details: in vivo
# [20] = Mean residence time (0 to t) in Sprague-Dawley rat at 1 mg/kg, iv administered as single dose; assay type: ADME, organism-based; details: in vivo
# [21] = Half life in Sprague-Dawley rat at 5 mg/kg, po administered as single dose; assay type: ADME, organism-based; details: in vivo
# [22] = Cmax in Sprague-Dawley rat at 5 mg/kg, po administered as single dose; assay type: ADME, organism-based; design: dose 5 mg/kg, route oral; details: in vivo
# [23] = Stability of the compound in Sprague-Dawley rat whole blood assessed as parent compound remaining after 0.5 hrs by LC-MS/MS analysis; assay type: ADME, tissue-based; details: read-out: Stability
structure (smiles),measurement,setting,value
COc1ccc2c(c[n+]3c4c2cc(Cc2ccccc2C)c2c5c(cc(c24)CC3)OCO5)c1OC.[Br-],MIC,Staphylococcus aureus [1],1 µg/mL
same,LD50 at 168 h,[2],65.6 mg/kg
same,MIC,Staphylococcus aureus [3],2 µg/mL
same,remaining at 24 h,[4],80.9%
same,remaining at 1 h,[5],94.2%
same,bioavailability,[6],0.8%
same,AUC(0-t),[7],724 ng·h/mL
same,MIC,Staphylococcus aureus [8],2 µg/mL
same,MIC,Staphylococcus aureus [9],4 µg/mL
same,MIC,Staphylococcus aureus [10],2 µg/mL
same,half-life,[11],7.2 h
same,AUC(0-t),[12],28.3 ng·h/mL
same,MIC,Staphylococcus aureus [13],4 µg/mL
same,MIC,Staphylococcus aureus [14],2 µg/mL
same,MRT last,[15],2.1 h
same,MIC,Staphylococcus aureus [16],2 µg/mL
same,MIC,Staphylococcus aureus [17],2 µg/mL
same,MIC,Staphylococcus aureus [18],2 µg/mL
same,Tmax,[19],1 h
same,MRT last,[20],4.3 h
same,half-life,[21],1.5 h
same,Cmax,[22],11.7 ng/mL
CCOC(=O)[C@H](CCc1ccccc1)N[C@@H](C)C(=O)N1CCC[C@H]1C(=O)O [ENALAPRIL],remaining at 1 h,[5],10.9%
same,remaining at 0.5 h,[23],42.9%
